Reference: US6355799B1, “Substituted benzene compounds, process for their preparation, and herbicidal and defoliant compositions containing them” (ISK Americas Incorporated, priority 1997, dated 2002)

Key:
Format in all cases: in vivo
[1] = tested on: redroot pigweed (Amaranthus retroflexus, AMARE); experiment: Pre-emerge test, greenhouse herbicide activity screening; settings: pre-emerge, rated 14 days after application, 0 = no damage, 100 = complete death
How it was run: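 Rating: 0–100 visual injury, 14 DAA. Application: acetone, 187 l/ha, 15–1000 g ai/ha, flat-fan track sprayer with nozzle 40–45 cm above soil or canopy. Post-emerge runs used 0.25% v/v surfactant on 2–3 leaf plants.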

[2] = tested on: velvetleaf (Abutilon theophrasti, ABUTH); experiment: as above; settings: pre-emerge, rated 14 days after application, 0 = no damage, 100 = complete death
How it was run: (§1)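 Sandy loam pots; pre-emerge: sown 1 d pre-spray, surface-watered after, then bottom-watered. Post-emerge: sown 8–21 d before, 2–3 leaf stage, + 0.25% v/v NIS, bottom-watered. Acetone, 187 l/ha track spray, 15–1000 g ai/ha. 0–100 injury score, day 14.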

[3] = tested on: common ragweed (Ambrosia artemisizfolia L., AMBEL); experiment: as above; settings: pre-emerge, rated 14 days after application, 0 = no damage, 100 = complete death
How it was run: as §1

[4] = tested on: johnsongrass (Sorghum halepense, SORHA); experiment: as above; settings: pre-emerge, rated 14 days after application, 0 = no damage, 100 = complete death
How it was run: as §1

[5] = tested on: ivyleaf morningglory (Ipomoea hederacea, IPOHE); experiment: as above; settings: pre-emerge, rated 14 days after application, 0 = no damage, 100 = complete death
How it was run: as §1

[6] = tested on: green foxtail (Setaria viridis, SETVI); experiment: as above; settings: pre-emerge, rated 14 days after application, 0 = no damage, 100 = complete death
How it was run: as §1

[7] = tested on: large crabgrass (Digitaria sanguinalis, DIGSA); experiment: as above; settings: pre-emerge, rated 14 days after application, 0 = no damage, 100 = complete death
How it was run: as §1

[8] = tested on: sicklepod (Cassia obtusifolia, CASOB); experiment: as above; settings: pre-emerge, rated 14 days after application, 0 = no damage, 100 = complete death
How it was run: as §1

[9] = tested on: barnyardgrass (Echinochloa crus-galli, ECHCG); experiment: as above; settings: pre-emerge, rated 14 days after application, 0 = no damage, 100 = complete death
How it was run: as §1

[10] = tested on: lambsquarters (Chenopodium album, CHEAL); experiment: as above; settings: pre-emerge, rated 14 days after application, 0 = no damage, 100 = complete death
How it was run: as §1

[11] = tested on: velvetleaf (Abutilon theophrasti, ABUTH); experiment: Post-emerge test, greenhouse herbicide activity screening; settings: phytotoxicity rating 0-100 (0 no damage, 100 complete death), 14 days after application
How it was run: (§2)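 Herbicidal damage is scored 0 (none) to 100 (complete plant death) two weeks after a simulated field spray. Rates span 15–1000 g ai/ha, delivered in acetone at 187 l/ha. For post-emergence treatments, plants have 2–3 leaves and the spray carries 0.25% v/v non-ionic surfactant.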

[12] = tested on: common ragweed (Ambrosia artemisizfolia L., AMBEL); experiment: as above; settings: phytotoxicity rating 0-100 (0 no damage, 100 complete death), 14 days after application
How it was run: as §2

[13] = tested on: johnsongrass (Sorghum halepense, SORHA); experiment: as above; settings: phytotoxicity rating 0-100 (0 no damage, 100 complete death), 14 days after application
How it was run: as §2

[14] = tested on: ivyleaf morningglory (Ipomoea hederacea, IPOHE); experiment: as above; settings: phytotoxicity rating 0-100 (0 no damage, 100 complete death), 14 days after application
How it was run: as §2

[15] = tested on: green foxtail (Setaria viridis, SETVI); experiment: as above; settings: phytotoxicity rating 0-100 (0 no damage, 100 complete death), 14 days after application
How it was run: as §2

[16] = tested on: large crabgrass (Digitaria sanguinalis, DIGSA); experiment: as above; settings: phytotoxicity rating 0-100 (0 no damage, 100 complete death), 14 days after application
How it was run: as §2

[17] = tested on: redroot pigweed (Amaranthus retroflexus, AMARE); experiment: as above; settings: phytotoxicity rating 0-100 (0 no damage, 100 complete death), 14 days after application
How it was run: as §2

[18] = tested on: sicklepod (Cassia obtusifolia, CASOB); experiment: as above; settings: phytotoxicity rating 0-100 (0 no damage, 100 complete death), 14 days after application
How it was run: as §2

[19] = tested on: barnyardgrass (Echinochloa crus-galli, ECHCG); experiment: as above; settings: phytotoxicity rating 0-100 (0 no damage, 100 complete death), 14 days after application
How it was run: as §2

[20] = tested on: lambsquarters (Chenopodium album, CHEAL); experiment: as above; settings: phytotoxicity rating 0-100 (0 no damage, 100 complete death), 14 days after application
How it was run: as §2

[21] = tested on: field corn (Zea mays L., var. Dekalb 535, CORN); experiment: Post-emerge test, crop safety; settings: phytotoxicity rating 0-100 (0 no damage, 100 complete death), 14 days after application
How it was run: as §1

[22] = tested on: upland rice (Oryza sp., var. Tebonnet, RICE); experiment: Post-emerge test, crop safety; settings: phytotoxicity rating 0-100 (0 no damage, 100 complete death), 14 days after application
How it was run: as §1

[23] = tested on: field corn (Zea mays L., var. Dekalb 535, CORN); experiment: Pre-emerge test, crop safety; settings: pre-emerge, rated 14 days after application, 0 = no damage, 100 = complete death
How it was run: (§3)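 Plants grown in 10 cm pots of sandy loam mix received acetone-dissolved compounds through a moving flat-fan nozzle. Doses ranged from 15 to 1000 g ai/ha. Pre-emerge pots were seeded one day earlier, post-emerge pots 8–21 days earlier. Fourteen days on, each pot was graded 0–100 for damage.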

[24] = tested on: upland rice (Oryza sp., var. Tebonnet, RICE); experiment: Pre-emerge test, crop safety; settings: pre-emerge, rated 14 days after application, 0 = no damage, 100 = complete death
How it was run: as §3

Question: For `COc1c(Cl)cc(F)c(-n2c(=O)cc(C(F)(F)F)n(C)c2=O)c1NS(=O)(=O)c1ccc(C)cc1` [2-26], which “Pre-emerge Herbicidal Activity AMARE (phytotoxicity rating, scale 0-100)” value ([1]; 63 g ai/ha) is on record?
Answer: 0

Question: And the “Pre-emerge Herbicidal Activity AMARE (phytotoxicity rating, scale 0-100)” value ([1]; 250 g ai/ha)?
Answer: 80

Question: And the “Pre-emerge Herbicidal Activity ABUTH (phytotoxicity rating, scale 0-100)” value ([2]; 63 g ai/ha)?
Answer: 0

Question: And the “Pre-emerge Herbicidal Activity ABUTH (phytotoxicity rating, scale 0-100)” value ([2]; 250 g ai/ha)?
Answer: 0

Question: And the “Pre-emerge Herbicidal Activity AMBEL (phytotoxicity rating, scale 0-100)” value ([3]; 63 g ai/ha)?
Answer: 0

Question: And the “Pre-emerge Herbicidal Activity AMBEL (phytotoxicity rating, scale 0-100)” value ([3]; 250 g ai/ha)?
Answer: 0

Question: And the “Pre-emerge Herbicidal Activity SORHA (phytotoxicity rating, scale 0-100)” value ([4]; 63 g ai/ha)?
Answer: 0

Question: What about the “Pre-emerge Herbicidal Activity SORHA (phytotoxicity rating, scale 0-100)” value ([4]; 250 g ai/ha) of the same compound?
Answer: 0

Question: And the “Pre-emerge Herbicidal Activity IPOHE (phytotoxicity rating, scale 0-100)” value ([5]; 63 g ai/ha)?
Answer: 0

Question: And the “Pre-emerge Herbicidal Activity IPOHE (phytotoxicity rating, scale 0-100)” value ([5]; 250 g ai/ha)?
Answer: 0

Question: What about the “Pre-emerge Herbicidal Activity SETVI (phytotoxicity rating, scale 0-100)” value ([6]; 63 g ai/ha) of the same compound?
Answer: 0

Question: What about the “Pre-emerge Herbicidal Activity SETVI (phytotoxicity rating, scale 0-100)” value ([6]; 250 g ai/ha) of the same compound?
Answer: 0

Question: And the “Pre-emerge Herbicidal Activity DIGSA (phytotoxicity rating, scale 0-100)” value ([7]; 63 g ai/ha)?
Answer: 0

Question: What about the “Pre-emerge Herbicidal Activity DIGSA (phytotoxicity rating, scale 0-100)” value ([7]; 250 g ai/ha) of the same compound?
Answer: 0

Question: And the “Pre-emerge Herbicidal Activity CASOB (phytotoxicity rating, scale 0-100)” value ([8]; 63 g ai/ha)?
Answer: 0

Question: What about the “Pre-emerge Herbicidal Activity CASOB (phytotoxicity rating, scale 0-100)” value ([8]; 250 g ai/ha) of the same compound?
Answer: 0

Question: And the “Pre-emerge Herbicidal Activity ECHCG (phytotoxicity rating, scale 0-100)” value ([9]; 63 g ai/ha)?
Answer: 0

Question: And the “Pre-emerge Herbicidal Activity ECHCG (phytotoxicity rating, scale 0-100)” value ([9]; 250 g ai/ha)?
Answer: 0

Question: What about the “Pre-emerge Herbicidal Activity CHEAL (phytotoxicity rating, scale 0-100)” value ([10]; 63 g ai/ha) of the same compound?
Answer: 0

Question: What about the “Pre-emerge Herbicidal Activity CHEAL (phytotoxicity rating, scale 0-100)” value ([10]; 250 g ai/ha) of the same compound?
Answer: 90

Question: And the “Post-emerge Herbicidal Activity ABUTH” value ([11]; 63 g ai/ha)?
Answer: 0

Question: And the “Post-emerge Herbicidal Activity ABUTH” value ([11]; 250 g ai/ha)?
Answer: 40

Question: And the “Post-emerge Herbicidal Activity AMBEL” value ([12]; 63 g ai/ha)?
Answer: 0

Question: What about the “Post-emerge Herbicidal Activity AMBEL” value ([12]; 250 g ai/ha) of the same compound?
Answer: 0

Question: And the “Post-emerge Herbicidal Activity SORHA” value ([13]; 63 g ai/ha)?
Answer: 0

Question: And the “Post-emerge Herbicidal Activity SORHA” value ([13]; 250 g ai/ha)?
Answer: 0

Question: What about the “Post-emerge Herbicidal Activity IPOHE” value ([14]; 63 g ai/ha) of the same compound?
Answer: 0

Question: What about the “Post-emerge Herbicidal Activity IPOHE” value ([14]; 250 g ai/ha) of the same compound?
Answer: 30

Question: What about the “Post-emerge Herbicidal Activity SETVI” value ([15]; 63 g ai/ha) of the same compound?
Answer: 0

Question: What about the “Post-emerge Herbicidal Activity SETVI” value ([15]; 250 g ai/ha) of the same compound?
Answer: 0

Question: What about the “Post-emerge Herbicidal Activity DIGSA” value ([16]; 63 g ai/ha) of the same compound?
Answer: 0

Question: What about the “Post-emerge Herbicidal Activity DIGSA” value ([16]; 250 g ai/ha) of the same compound?
Answer: 0

Question: And the “Post-emerge Herbicidal Activity AMARE” value ([17]; 63 g ai/ha)?
Answer: 0

Question: What about the “Post-emerge Herbicidal Activity AMARE” value ([17]; 250 g ai/ha) of the same compound?
Answer: 20

Question: What about the “Post-emerge Herbicidal Activity CASOB” value ([18]; 63 g ai/ha) of the same compound?
Answer: 0

Question: And the “Post-emerge Herbicidal Activity CASOB” value ([18]; 250 g ai/ha)?
Answer: 0

Question: And the “Post-emerge Herbicidal Activity ECHCG” value ([19]; 63 g ai/ha)?
Answer: 0

Question: What about the “Post-emerge Herbicidal Activity ECHCG” value ([19]; 250 g ai/ha) of the same compound?
Answer: 0

Question: What about the “Post-emerge Herbicidal Activity CHEAL” value ([20]; 63 g ai/ha) of the same compound?
Answer: 0

Question: And the “Post-emerge Herbicidal Activity CHEAL” value ([20]; 250 g ai/ha)?
Answer: 20

Question: And the “Post-emerge Herbicidal Activity CORN (crop damage)” value ([21]; 63 g ai/ha)?
Answer: 0

Question: What about the “Post-emerge Herbicidal Activity CORN (crop damage)” value ([21]; 250 g ai/ha) of the same compound?
Answer: 0

Question: What about the “Post-emerge Herbicidal Activity RICE (crop damage)” value ([22]; 63 g ai/ha) of the same compound?
Answer: 0

Question: And the “Post-emerge Herbicidal Activity RICE (crop damage)” value ([22]; 250 g ai/ha)?
Answer: 0

Question: And the “Pre-emerge crop damage CORN (phytotoxicity rating, scale 0-100)” value ([23]; 63 g ai/ha)?
Answer: 0

Question: And the “Pre-emerge crop damage CORN (phytotoxicity rating, scale 0-100)” value ([23]; 250 g ai/ha)?
Answer: 0

Question: And the “Pre-emerge crop damage RICE (phytotoxicity rating, scale 0-100)” value ([24]; 63 g ai/ha)?
Answer: 0

Question: And the “Pre-emerge crop damage RICE (phytotoxicity rating, scale 0-100)” value ([24]; 250 g ai/ha)?
Answer: 0
